Data: patent US11489184B2, “Electrolyte including mixture of active material and precursor thereof” (Foundation for Research and Business, Seoul National …, priority 2020, dated 2022)
In brackets after ≈: the same amount, converted by molar mass.

What was measured:
Type in all cases: physicochemical
[1] = Analysis of reaction of NQ-S to NQ-OH in KOH (cyclic voltammetry and UV-vis spectroscopy); details: 0.01 M in 1 M KOH, CV; for redox potential: NQ-S right after dissolution
Description: Initially, 0.01 M NQ-S was dissolved in 1 M KOH and then the NQ-S solution was stayed for few hours. Changes in a chemical structure of the NQ-S solution were observed using cyclic voltammetry and UV-vis spectroscopy.
For the UV-vis spectroscopy, the following three samples were prepared: (i) NQ-S that is just dissolved in KOH (sample 1); (ii) NQ-S dissolved in KOH for 6 hours (sample 2); and (iii) pristine Lawsone (sample 3). In FIG. 2B, a peak observed at 455 nm corresponds to a peak for NQ-OH, and the peak was clearly observed in sample 2.

[2] = Half-cell cyclic voltammetry, kinetic parameters of NQ derivatives; details: 0.01 M in 1 M KOH; for redox potential difference (average difference of anodic and cathodic redox potentials, ΔEp,avg): glassy carbon electrode, scan rate 10 to 100 mV·s^−1
Description: To observe electrochemical performance of active species, various half-cell tests were performed as follows by using a computer connected potentiostat (SP-240, BioLogic). Ag/AgCl (soaked in 3.0 M NaCl) and Pt wire were used as a reference electrode and a counter electrode, respectively. […] To this end, kinetic parameters of NQ derivatives were measured and compared. To calculate electrochemical properties of NQ derivatives, the CV curves were used. […] A value of D was measured by a Randles-Sevick's equation.

[3] = Analysis of ratio of Lawsone and NQ-S (CV curves); details: 0.1 M NQ-S dissolved in 1 M KOH (one third transformed)
Description: Samples of Lawsone and NQ-S having different ratios were prepared, and a resistance and a solubility of samples were measured electrochemically (by cyclic voltammetry (CV) and electrochemical impedance spectroscopy (EIS)) and optically (by UV-vis spectroscopy).
[…]; (iv) only Lawsone (0.3 M Lawsone); and (v) only NQ-S (0.3 M NQ-S).

[4] = Solubility analysis of NQ derivatives in KOH by UV-vis spectroscopy; details: 1 M KOH solution, aqueous buffer, thermodynamic from solid, stirred for 24 hours, upper part measured by UV-vis, substance alone
Description: Excessive amounts of solutions of NQ derivatives were prepared. […] When a further period of time elapsed after stirring was stopped, each solution was divided into two parts (upper and lower parts). 400 microliters (L) of the upper part of the solution was collected and observed by a UV-vis spectrometer. An absorbance was measured to determine concentrations of NQ derivatives.
As a control group, a solution with a known concentration of Lawsone was prepared, and UV-vis spectroscopy of the solution was measured. When absorbance peaks of the control group and a sample of NQ derivatives were compared, concentrations of the samples were calibrated and calculated.

transformation of NQ-S into NQ-OH in KOH ([1]; staying time 6 hours)	redox potential [1] [V vs Ag/AgCl]	redox potential difference (average difference of anodic and cathodic redox potentials, ΔEp,avg) [2] [V]	desirable NQ-OH formed by transformation of NQ-S [3] [M]	solubility at 24 h [4] [mM]	diffusion coefficient D ([2]; CV, Randles-Sevick's equation)	SMILES
completely transformed into NQ-OH	−0.1	0.077	0.033			O=C1C=C(S(=O)(=O)[O-])c2ccccc2C1=O.[Na+] [NQ-S, 1,2-naphthoquinone-4-sulfonic acid sodium salt]
	−0.55	0.077		420 (≈ 73.1 mg/mL)	1.75·10^−6 cm^2·s^−1	O=C1C=C(O)C(=O)c2ccccc21 [Lawsone, 2-hydroxy-1,4-naphthoquinone, reference compound]
